According to BigSolDB 2.1:

NC(N)=NC(N)=NCCc1ccccc1
solubility (mole fraction)
Conditions	278.15 K	283.15 K	288.15 K	293.15 K	298.15 K	303.15 K	308.15 K	313.15 K	318.15 K	323.15 K
in 1,4-dioxane	–	–	0.000166	0.000202	0.000249	0.000312	0.000379	0.00046	0.000551	0.00065
in DMF	0.0158	0.0191	0.0226	0.0256	0.0303	0.0353	0.0411	0.0491	0.0579	0.0655
in DMSO	–	–	–	0.0217	0.025	0.0305	0.0359	0.0431	0.0508	0.0603
in NMP	0.0113	0.014	0.017	0.0202	0.0235	0.028	0.0337	0.0409	0.0486	0.0579
in acetonitrile	0.000211	0.00026	0.000322	0.000398	0.000494	0.000596	0.00071	0.00084	0.00101	0.00119
in ethanol	0.00183	0.0022	0.00266	0.00322	0.00378	0.00449	0.00524	0.00614	0.00723	0.00847
in ethyl acetate	0.00157	0.00184	0.0022	0.00265	0.00318	0.00379	0.00445	0.00521	0.00603	0.00695
in ethylene glycol	0.0033	0.00366	0.00417	0.00481	0.00567	0.00677	0.00774	0.00919	0.011	0.0128
in isobutanol	0.000518	0.00063	0.000792	0.00095	0.00116	0.00139	0.00167	0.00197	0.00229	0.00265
in isopropanol	0.000814	0.000976	0.00118	0.00142	0.00174	0.00208	0.00247	0.00288	0.00334	0.00383
in methanol	0.00237	0.0028	0.00328	0.00385	0.00457	0.00532	0.00623	0.00743	0.00823	0.0103
in n-butanol	0.000627	0.000777	0.000923	0.00118	0.00142	0.00167	0.00194	0.00227	0.00265	0.00308
in n-propanol	0.000975	0.00116	0.00137	0.00173	0.00208	0.00249	0.0029	0.00341	0.00396	0.00452
in water	0.000389	0.000481	0.000585	0.000739	0.000888	0.00107	0.00126	0.00148	0.00175	0.00206
